{"source": "patent US9505728B2", "about": "“Triazolone compounds and uses thereof” (INCEPTION 2, INC., priority 2012, dated 2016)"}
{"molecular_target": "T1, Human PPARα (Homo sapiens, UniProt Q07869)", "T1 construct": "host or cells: proprietary non-human mammalian cells", "T1 sequence (Q07869 1-468)": "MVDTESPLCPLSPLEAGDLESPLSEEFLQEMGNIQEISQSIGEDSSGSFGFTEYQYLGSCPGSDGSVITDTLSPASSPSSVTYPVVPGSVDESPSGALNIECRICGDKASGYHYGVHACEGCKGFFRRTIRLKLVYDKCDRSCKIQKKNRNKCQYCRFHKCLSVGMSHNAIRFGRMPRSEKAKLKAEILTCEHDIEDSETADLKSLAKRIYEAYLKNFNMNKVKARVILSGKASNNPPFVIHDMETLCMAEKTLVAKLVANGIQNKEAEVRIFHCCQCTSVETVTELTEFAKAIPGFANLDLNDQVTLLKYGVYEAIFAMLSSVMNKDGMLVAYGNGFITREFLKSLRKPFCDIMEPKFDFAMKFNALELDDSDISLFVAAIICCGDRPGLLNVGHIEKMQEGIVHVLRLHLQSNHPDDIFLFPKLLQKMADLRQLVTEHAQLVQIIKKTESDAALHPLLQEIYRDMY", "assay": "Human PPARα Reporter Assay (luciferase)", "assay_type": "cell-based", "settings": "human PPARα reporter cells, overnight incubation, antagonism; read-out: Luciferase IC50", "experimental": "Human PPARα Reporter Assay\nThe screening of test compounds for agonist or antagonist activities against human PPARα receptors was performed using a commercial kit, Human PPARα Reporter Assay System (Indigo Biosciences, Cat. #IB00111).\nThis nuclear receptor assay system utilizes proprietary non-human mammalian cells engineered to provide constitutive, high-level expression of Human PPARα. Because these cells incorporate a PPARα-responsive luciferase reporter gene, quantifying expressed luciferase activity provides a sensitive surrogate measure of PPARα activity in the treated cells. The primary application of this reporter assay system is in the screening of test samples to quantify any functional activity, either agonist or antagonist, that they may exert against human PPARα.\nBriefly, reporter cells are dispensed into wells of the assay plate and then immediately dosed with test compounds. Following an overnight incubation, the treatment media is discarded and Luciferase Detection Reagent (LDR) is added. The intensity of light emission from the ensuing luciferase reaction provides a sensitive measure that is directly proportional to the relative level of PPARα activation in the reporter cells.", "units": {"IC50": "nM"}}
{"smiles": "CCOc1ccc(-c2ccc(CCCc3nn(Cc4ccc(C(C)(C)C)cc4)c(=O)n3CC)cc2)cc1C1(C#N)CC1", "note": "[Example 120, 1-(4′-(3-(1-(4-(tert-Butyl)benzyl)-4-ethyl-5-oxo-4,5-dihydro-1H-1,2,4-triazol-3-yl)propyl)-4-ethoxy-[1,1′-biphenyl]-3-yl)cyclopropanecarbonitrile]", "IC50": 604}
{"smiles": "CCn1c(CCCc2ccc(-c3ccc(C4(O)COC4)cc3)cc2)nn(Cc2ccc(C(C)(C)C)cc2)c1=O", "note": "[Example 174, 1-(4-(tert-Butyl)benzyl)-4-ethyl-3-(3-(4′-(3-hydroxyoxetan-3-yl)-[1,1′-biphenyl]-4-yl)propyl)-1H-1,2,4-triazol-5(4H)-one]", "IC50": 144}
{"smiles": "CCn1c(CCCc2ccc(-c3ncc(N)cc3C(F)(F)F)cc2)nn(Cc2ccc(C(C)(C)C)cc2)c1=O", "note": "[Example 156, 3-(3-{4-[5-Amino-3-(trifluoromethyl)(2-pyridyl)]phenyl}propyl)-1-{[4-(tert-butyl)phenyl]methyl}-4-ethyl-1,2,4-triazolin-5-one]", "IC50": 684}
{"smiles": "CCn1c(CCCc2ccc(-c3cnc(C4(F)COC4)s3)cc2)nn(Cc2ccc(C(C)(C)C)cc2)c1=O", "note": "[Example 202, 1-(4-(tert-Butyl)benzyl)-4-ethyl-3-(3-(4-(2-(3-fluorooxetan-3-yl)thiazol-5-yl)phenyl)propyl)-1H-1,2,4-triazol-5(4H)-one]", "IC50": 51}
{"smiles": "CCn1c(CCCc2ccc(-c3csc(C4(F)COC4)n3)cc2)nn(Cc2ccc(C(C)(C)C)cc2)c1=O", "note": "[Example 201, 1-(4-(tert-Butyl)benzyl)-4-ethyl-3-(3-(4-(2-(3-fluorooxetan-3-yl)thiazol-4-yl)phenyl)propyl)-1H-1,2,4-triazol-5(4H)-one]", "IC50": 533}
{"smiles": "CCn1c(CCCc2ccc(-c3cncc(N)c3)cc2)nn(Cc2ccc(C(C)(C)C)cc2)c1=O", "note": "[Example 109, 3-(3-(4-(5-Aminopyridin-3-yl)phenyl)propyl)-1-(4-(tert-butyl)benzyl)-4-ethyl-1H-1,2,4-triazol-5(4H)-one]", "IC50": 590}
{"smiles": "CCn1c(CCCc2ccc(-c3cccc(CNS(=O)(=O)c4ccccc4)c3)cc2)nn(Cc2ccc(C(C)(C)C)cc2)c1=O", "note": "[Example 177, 1-{[4-(tert-Butyl)phenyl]methyl}-4-ethyl-3-{3-[4-(3-{[(phenylsulfonyl)amino]methyl}phenyl)phenyl]propyl}-1,2,4-triazolin-5-one]", "IC50": 419}
{"smiles": "CCn1c(CCCc2ccc(-c3ccc(OC)c(CCNS(=O)(=O)c4ccccc4)c3)cc2)nn(Cc2ccc(C(C)(C)C)cc2)c1=O", "note": "[Example 182, 1-{[4-(tert-Butyl)phenyl]methyl}-4-ethyl-3-{3-[4-(4-methoxy-3-{2-[(phenylsulfonyl)amino]ethyl}phenyl)phenyl]propyl}-1,2,4-triazolin-5-one]", "IC50": 414}
{"smiles": "CCn1c(CCCc2ccc(-c3ccc(C(F)(F)F)c(NS(=O)(=O)c4ccccc4)n3)cc2)nn(Cc2ccc(C(C)(C)C)cc2)c1=O", "note": "[Example 164, 1-{[4-(tert-Butyl)phenyl]methyl}-4-ethyl-3-[3-(4-{6-[(phenylsulfonyl)amino]-5-(trifluoromethyl)(2-pyridyl)}phenyl)propyl]-1,2,4-triazolin-5-one]", "IC50": 20}
{"smiles": "CCn1c(CCCc2ccc(-c3cccc(C(C)(C)C(N)=O)c3)cc2)nn(Cc2ccc(C(C)(C)C)cc2)c1=O", "note": "[Example 15, 2-(4′-(3-(1-(4-(tert-Butyl)benzyl)-4-ethyl-5-oxo-4,5-dihydro-1H-1,2,4-triazol-3-yl)propyl)-[1,1′-biphenyl]-3-yl)-2-methylpropanamide]", "IC50": 519}
{"smiles": "CCn1c(CCCc2ccc(-c3ccc(OC)c(S(=O)(=O)Nc4ccccn4)c3)cc2)nn(Cc2ccc(C(C)(C)C)cc2)c1=O", "note": "[Example 123, 4′-(3-(1-(4-(tert-Butyl)benzyl)-4-ethyl-5-oxo-4,5-dihydro-1H-1,2,4-triazol-3-yl)propyl)-4-methoxy-N-(pyridin-2-yl)-[1,1′-biphenyl]-3-sulfonamide]", "IC50": 186}
{"smiles": "CC(C)(C)c1ccc(Cn2nc(CCCc3ccc(-c4ccc(C5(O)COC5)cc4)cc3)[nH]c2=O)cc1", "note": "[Example 167, 1-(4-(tert-Butyl)benzyl)-3-(3-(4%(3-hydroxyoxetan-3-yl)-[1,1′-biphenyl]-4-yl)propyl)-1H-1,2,4-triazol-5(4H)-one]", "IC50": 454}
{"smiles": "CCn1c(CCCc2ccc(-c3ccc(OC)c(C4(C(=O)O)CCC4)c3)cc2)nn(Cc2ccc(C(C)(C)C)cc2)c1=O", "note": "[Example 133, 1-(4′-(3-(1-(4-(tert-Butyl)benzyl)-4-ethyl-5-oxo-4,5-dihydro-1H-1,2,4-triazol-3-yl)propyl)-4-methoxy-[1,1′-biphenyl]-3-yl)cyclobutanecarboxylic acid]", "IC50": 597}
{"smiles": "CCn1c(CCCc2ccc(-c3nc(NC(=O)OC(C)(C)C)co3)cc2)nn(Cc2ccc(C(C)(C)C)cc2)c1=O", "note": "[Example 25, tert-Butyl (2-(4-(3-(1-(4-(tert-butyl)benzyl)-4-ethyl-5-oxo-4,5-dihydro-1H-1,2,4-triazol-3-yl)propyl)phenyl)oxazol-4-yl)carbamate]", "IC50": 184}
{"smiles": "CCSc1ccc(-c2ccc(CCCc3nn(Cc4ccc(C(C)(C)C)cc4)c(=O)n3CC)cc2)cc1CC(=O)O", "note": "[Example 61, 2-(5-{4-[3-(1-{[4-(tert-Butyl)phenyl]methyl}-4-ethyl-5-oxo(1,2,4-triazolin-3-yl))propyl]phenyl}-2-ethylthiophenyl)acetic acid]", "IC50": 20}
{"smiles": "CCn1c(CCCc2ccc(-c3ccc(OC)c(CN)c3)cc2)nn(Cc2ccc(C(C)(C)C)cc2)c1=O", "note": "[Example 184, 3-(3-{4-[3-(Aminomethyl)-4-methoxyphenyl]phenyl}propyl)-1-{[4-(tert-butyl)phenyl]methyl}-4-ethyl-1,2,4-triazolin-5-one]", "IC50": 534}
{"smiles": "CCn1c(CCCc2ccc(-c3cccc(NS(=O)(=O)N(C)C)c3)cc2)nn(Cc2ccc(C(C)(C)C)cc2)c1=O", "note": "[Example 107, 3-{3-[4-(3-{[(Dimethylamino)sulfonyl]amino}phenyl)phenyl]propyl}-1-{[4-(tert-butyl)phenyl]methyl}-4-ethyl-1,2,4-triazolin-5-one]", "IC50": 683}
{"smiles": "CCn1c(CCCc2ccc(-c3ccc(OC(C)C)c(CC(=O)O)c3)cc2)nn(Cc2ccc(C(C)(C)C)cc2)c1=O", "note": "[Example 200, 2-(4′-(3-(1-(4-(tert-Butyl)benzyl)-4-ethyl-5-oxo-4,5-dihydro-1H-1,2,4-triazol-3-yl)propyl)-4-isopropoxy-[1,1′-biphenyl]-3-yl)acetic acid]", "IC50": 13}
{"smiles": "CCn1c(CCCc2ccc(-c3cccc(C4(C(=O)O)CC4)c3)cc2)nn(Cc2ccc(C(C)(C)C)cc2)c1=O", "note": "[Example 13, 1-(4′-(3-(1-(4-(tert-Butyl)benzyl)-4-ethyl-5-oxo-4,5-dihydro-1H-1,2,4-triazol-3-yl)propyl)-[1,1′-biphenyl]-3-yl)cyclopropanecarboxylic acid]", "IC50": 268}
{"smiles": "CCn1c(CCCc2ccc(-c3ccc(OC)c(CC(=O)O)c3)cc2)nn(Cc2ccc(C(C)(C)C)cc2)c1=O", "note": "[Example 21, 2-(4′-(3-(1-(4-(tert-Butyl)benzyl)-4-ethyl-5-oxo-4,5-dihydro-1H-1,2,4-triazol-3-yl)propyl)-4-methoxy-[1,1′-biphenyl]-3-yl)acetic acid]", "IC50": 25}
{"smiles": "CCn1c(CCCc2ccc(-c3cccc(NS(=O)(=O)c4ccc(-c5ccc(C)cc5)cc4)n3)cc2)nn(Cc2ccc(C(C)(C)C)cc2)c1=O", "note": "[Example 73, 1-{[4-(tert-Butyl)phenyl]methyl}-4-ethyl-3-(3-{4-[6-({[4-(4-methylphenyl)phenyl]sulfonyl}amino)(2-pyridyl)]phenyl}propyl)-1,2,4-triazolin-5-one]", "IC50": 62}
{"smiles": "CCn1c(CCCc2ccc(-c3ccc(OC(F)(F)F)c(C(=O)O)c3)cc2)nn(Cc2ccc(C(C)(C)C)cc2)c1=O", "note": "[Example 131, 4′-(3-(1-(4-(tert-Butyl)benzyl)-4-ethyl-5-oxo-4,5-dihydro-1H-1,2,4-triazol-3-yl)propyl)-4-(trifluoromethoxy)-[1,1′-biphenyl]-3-carboxylic acid]", "IC50": 15}
{"smiles": "CCCC(=O)Nc1cccc(-c2ccc(CCCc3nn(Cc4ccc(C(C)(C)C)cc4)c(=O)n3CC)cc2)n1", "note": "[Example 100, N-(6-{4-[3-(1-{[4-(tert-Butyl)phenyl]methyl}-4-ethyl-5-oxo-1,2,4-triazolin-3-yl)propyl]phenyl}-2-pyridyl)butanamide]", "IC50": 712}
{"smiles": "CCn1c(CCCc2ccc(-c3ccc(OC)c(CC(=O)NS(C)(=O)=O)c3)cc2)nn(Cc2ccc(C(C)(C)C)cc2)c1=O", "note": "[Example 135, 2-(4′-(3-(1-(4-(tert-Butyl)benzyl)-4-ethyl-5-oxo-4,5-dihydro-1H-1,2,4-triazol-3-yl)propyl)-4-methoxy-[1,1′-biphenyl]-3-yl)-N-(methylsulfonyl)acetamide]", "IC50": 192}
{"smiles": "CCn1c(CCCc2ccc(-c3cnc(NS(=O)(=O)c4ccccc4)cn3)cc2)nn(Cc2ccc(C(C)(C)C)cc2)c1=O", "note": "[Example 118, N-(5-(4-(3-(1-(4-(tert-Butyl)benzyl)-4-ethyl-5-oxo-4,5-dihydro-1H-1,2,4-triazol-3-yl)propyl)phenyl)pyrazin-2-yl)benzenesulfonamide]", "IC50": 446}
